# Key:
# Conditions in all cases: 0.2500 kg/ha
# [1] = test system: Soybean, Williams, Glycine max; experiment: Preemergence herbicidal evaluation, GLXMAW; type: in vivo, (L.) Merr. cv Williams
# Source text: (§1) Results of herbicide evaluation are expressed on a rating scale (0-9). The scale is based upon a visual observation of plant stand, vigor, malformation, size, chlorosis and overall plant appearance as compared with a control.
# (§2) The preemergence herbicidal activity of the test compounds of the present invention is exemplified by the following tests in which the seeds of a variety of monocotyledonous and dicotyledonous plants are separately mixed with potting soil and planted on top of approximately one inch of soil in separate pint cups. After planting, the cups are sprayed with the selected aqueous acetone solution containing test compound in sufficient quantity to provide the equivalent of about 0.0156 to 0.500 kg per hectare of test compound per cup. The treated cups are then placed on greenhouse benches, watered and cared for in accordance with conventional greenhouse procedures. From four to five weeks after treatment, the tests are terminated and each cup is examined and rated according to the rating system provided in Example 185.
# (§3) The compounds evaluated are reported by compound number given in Example 185.
# [2] = test system: Rice, Tebonnet, Oryza sativa; experiment: Preemergence herbicidal evaluation, ORYSAT; type: in vivo, (L.) Tebonnet
# Source text: as §1, §2, §3
# [3] = test system: Sicklepod, Cassia obtusifolia; experiment: Preemergence herbicidal evaluation, CASOB; type: in vivo, L.
# Source text: as §1, §2, §3
# [4] = test system: Morningglory, Ivyleaf, Ipomoea hederacea; experiment: Preemergence herbicidal evaluation, IPOHE; type: in vivo, (L.) Jacq.
# Source text: as §1, §2, §3
# [5] = test system: Ragweed, Common, Ambrosia artemisifolia; experiment: Preemergence herbicidal evaluation, AMBEL; type: in vivo, L.
# Source text: as §1, §2, §3
# [6] = test system: Velvetleaf, Abutilon theophrasti; experiment: Preemergence herbicidal evaluation, ABUTH; type: in vivo, Medic.
# Source text: as §1, §2, §3
# Galium, Galium aparine = experiment: Preemergence herbicidal evaluation, GALAP; type: in vivo
# Source text: as §1, §2, §3
# [7] = test system: Barnyardgrass, Echinochloa crus-galli; experiment: Preemergence herbicidal evaluation, ECHCG; type: in vivo, (L.) Beau
# Source text: as §1, §2, §3
# Corn, Field, Zea mays = experiment: Preemergence herbicidal evaluation, ZEAMX; type: in vivo, L.
# Source text: as §1, §2, §3
# [8] = test system: Wheat, Winter, cv Riband, Triticum aestivum; experiment: Preemergence herbicidal evaluation, TRZAWR; type: in vivo
# Source text: as §1, §2, §3
# [9] = test system: Lambsquarters, Common, Chenopodium album; experiment: Preemergence herbicidal evaluation, CHEAL; type: in vivo, L.
# Source text: as §1, §2, §3
# [10] = test system: Foxtail, Green, Setaria viridis; experiment: Preemergence herbicidal evaluation, SETVI; type: in vivo, (L.) Beau
# Source text: as §1, §2, §3
smiles,measurement,setting,value
"COC(=O)COc1noc2ccc(-n3c(=O)cc(C(F)(F)F)n(C)c3=O)cc12 [Compound 22, Methyl {{5-[3,6-dihydro-3-methyl-2,6-dioxo-4-(trifluoromethyl)-1(2H)-pyrimidinyl]-1,2-benzisoxazol-3-yl}oxy}acetate]",herbicide rating (0-9),[1],2.0
same,herbicide rating (0-9),[2],0.0
same,herbicide rating (0-9),[3],9.0
same,herbicide rating (0-9),[4],0.0
same,herbicide rating (0-9),[5],0.0
same,herbicide rating (0-9),[6],0.0
same,herbicide rating (0-9),"Galium, Galium aparine",4.0
same,herbicide rating (0-9),[7],0.0
same,herbicide rating (0-9),"Corn, Field, Zea mays",1.0
same,herbicide rating (0-9),[8],0.0
same,herbicide rating (0-9),[9],0.0
same,herbicide rating (0-9),[10],0.0
"Cc1noc2cc(F)c(-n3c(=O)cc(C(F)(F)F)n(C)c3=O)cc12 [Compound 23, 3-(6-Fluoro-3-methyl-1,2-benzisoxazol-5-yl)-1-methyl-6-(trifluoromethyl)-2,4(1H,3H)-pyrimidinedione]",herbicide rating (0-9),[1],9.0
same,herbicide rating (0-9),[2],9.0
same,herbicide rating (0-9),[3],9.0
same,herbicide rating (0-9),[4],9.0
same,herbicide rating (0-9),[5],9.0
same,herbicide rating (0-9),[6],9.0
same,herbicide rating (0-9),"Galium, Galium aparine",9.0
same,herbicide rating (0-9),[7],9.0
same,herbicide rating (0-9),"Corn, Field, Zea mays",9.0
same,herbicide rating (0-9),[8],9.0
same,herbicide rating (0-9),[9],9.0
same,herbicide rating (0-9),[10],9.0
